The test system of assay [1] is lice eggs. Briefly: Lice egg-hatch bioassay, eggs treated five days post laying. The class given is in vivo, clothing lice (Pediculus humanus humanus). On the procedure:
To evaluate the potential effects of protease inhibitors on lice egg hatching it was necessary to develop a reliable in vitro bioassay. Male and female clothing lice were fed on a rabbit as previously described. […] During this period the female lice laid their eggs and attached them to the woven cloth. All lice would then be removed and the eggs permitted to incubate for the following 5 days. […] The eggs would then progress through to their final stages of development and hatch. In untreated control eggs a reliable average percentage hatch of between 85-95 percent was obtained using the in vitro egg hatch assay. […] Lice eggs were laid onto cloth as described above. […] Protease inhibitor solutions were typically prepared as stock solutions and added fresh at the appropriate concentration. Specifically stock solutions were prepared as follows: 1,10-phenanthroline (200 mM in methanol) and bestatin (5 mg/ml in methanol). In addition, the equivalent levels of the solvent were added to the non-inhibitor containing controls eggs to test for any buffer alone effects. Percentage hatch inhibition was calculated as the percentage reduction in egg hatch compared to the untreated control.

For assay [2], the system named is lice hatching proteases in the egg shell washings (ESW). Briefly: Gelatine substrate SDS-PAGE of egg shell washings treated with protease inhibitors. The format is biochemical, Pediculus humanus humanus. Conditions: 10 mM inhibitor; 3 hrs at 37° C. How it is done:
Within 12 hours of hatching 50 body lice eggs (Pediculus humanus humanus) were removed from the hair and placed in a 1 ml eppendorf tube. 20 μL of distilled water was added to the unhatched eggs and the preparation incubated for 30 minutes at 32° C. The 20 μL was recovered, freeze dried and stored at −70° C. A number of other samples were also collected as described. Hair samples from which unhatched lice eggs had been removed were also collected and incubated as described above. In addition, a sample of unhatched eggs and a sample of hair from which lice eggs had been removed were collected 7 days post laying (within 24 hrs of egg hatching). Both samples were washed in 10 mls of a 1% solution of sodium hypochlorite for 1 minute followed by a 5×1 minute washes in 25 mls in distilled water to remove the hypochlorite. These samples were then incubated in 20 μL of distilled water as described above. In addition, a group of 25 lice eggs that were within 24 hours of hatching, were pretreated with 1% sodium hypochlorite, washed as described above and left to hatch. Within 1-2 hours after hatching the empty egg shells were incubated in 20 μL of distilled water as described above, the washings collected from the hatched egg shells and stored at −70° C. All of the extract samples were then freeze-dried overnight. The freeze-dried samples were then resuspended in 15 μL of non-reducing SDS sample buffer, centrifuged at 10,000 g for 2 minutes and the entire 15 μL loaded on to 10% gelatine substrate SD S-PAGE gels. Gels were run at 4° C. for 10 minutes at 10 mA followed by a further 25 minutes at 15 mA per gel. They were then incubated for 2×20 minutes in a 2.5% Triton-X 100 solution followed by a three hour incubation in 0.1M Tris/HCl containing 1 mM CaCl2 pH 8.0. Activity was detected as clear areas on the gel the result of protease activity degrading the gelatine within the gel.
10% SDS-PAGE gelatine substrate gels were loaded with freeze dried egg shell washings from 100 lice eggs that had been resuspended in 50 μl of non-reducing sample buffer with samples run at 10 μl per lane. Gels were run at 4° C. for 10 minutes at 10 mA per gel followed by a further 25 minutes at 15 mA per gel. Gels were then cut into strips and each strip incubated for 2×20 minutes in a 2.5% Triton-X 100 solution containing a specific inhibitor. The inhibitors used were the serine protease inhibitor PMSF (5 mM), the metalloprotease inhibitor 1,10-phenanthroline (10 mM), the aspartic protease Pepstatin (5 μM) and the cysteine inhibitor E-64 (10 μM). The gel strips were then incubated in 0.1M Tris/HCl containing 1 mM CaCl2 pH 8 containing the different protease inhibitors for 3 hrs at 37° C., before being stained in Coomassie blue and destained as previously described.

For assay [3], the system named is head lice eggs. Briefly: Assessment of commercial lice products in the standard lice egg-hatching assay. The class given is in vivo. Particulars: summary in words. How it is done: These three products were tested according to manufacturer's recommendations. Groups of eggs (24 hr old) were treated with the different products according to manufacturer's recommendations for the appropriate period of time (5-10 minutes) followed by a rinse for 1-2 minutes in 32° C. water. A positive controls (10 mM 1,10-phenanthroline) and two negative controls (no treatment and 20% Methanol) were also incorporated. Post exposure to the different products, the eggs were rinsed with warm water at 32° C. before being blotted dry on tissue paper and placed at 32° C., 70% RH and left to hatch. A second group of eggs, (48 hr old) were treated as previously described and also left to hatch. This process was repeated at 24 hr intervals on head lice eggs up to 120 hr post laying. This method of assaying inhibitors more closely mirrors the field situation where lice eggs will be at various stages of development on the head and permits the inhibitory effects to be observed on these different stages of the parasite.
These two products were tested according to manufacturer's recommendations. Groups of eggs (24 hr old) were treated with the different products according to manufacturer's recommendations for the appropriate period of time (5-10 minutes) followed by a rinse for 1-2 minutes in 32° C. water. Two negative controls (no treatment and 20% ethanol) were also incorporated. […]

Assay [4] concerns Plutella xylostella eggs (Waite strain). Description: Egg hatching of Plutella xylostella. Conditions: Table 9; 10 mM; relative to control (100% MeOH).
The subject of assay [5] is Helicoverpa armigera eggs (Tatura×Toowoomba strains). Description: Egg hatching of Helicoverpa armigera. Particulars: Table 14; 10 mM; relative to control.

In the case of `c1cnc2c(c1)ccc1cccnc12` [1,10-phenanthroline], the “egg hatching in lice” value in assay [1] (10 mM, eggs treated 5 days post laying) is given as “significantly inhibited egg hatching”. The “inhibition of egg hatching” value in assay [1] (added within 24 hours of hatching) is reported as “variable inhibition”. Besides, in assay [2], the “protease activity of the ESW” value is listed as “significant reduction in protease activity”. In addition, the “ovicidal activity across the different stages of lice egg hatching” value in assay [3] is given as “highly effective at inhibiting lice egg hatching”. Besides, the “% Inhibition” value in assay [4] is listed as “significantly inhibit egg hatching”; in assay [5], “able to inhibit egg hatching”.

Values taken from patent US20090143419A1, “METHODS AND COMPOSITIONS FOR CONTROLLING ECTOPARASITES” (HATCHTECH PTY LTD, priority 2005, published 2009).
